Measurements: patent US20250057823A1, “COMPOSITION FOR IMPROVING CARDIAC FUNCTION” (Kyoto University, priority 2021, published 2025)
Entries after “also recorded” stand apart in the source; their conditions may differ. Structures can show the parent of a compound that is named as a salt.

Legend:
[1] = test system: beagle dog models of heart failure; assay: Beagle dog models of rapid ventricular pacing-induced heart failure; assay type: in vivo
Description: After induction of general anesthesia with thiopental sodium (20 mg/kg, i.v.: 0.5 g of Labonal injection, Nipro ES Pharma Corporation) in 10- to 12-month-old male beagle dogs (9.80-11.50 kg), a tracheal cannula was inserted into the airway, and artificial respiration was performed with an Acoma veterinary ventilator (PRO-45Va, Acoma Medical Corporation). Anesthesia was maintained by inhalation of a gas mixture (Air:O2=3:0.2) and 1.0 to 2.5% isoflurane (isoflurane inhalation solution “Pfizer”, Mylan Seiyaku Co., Ltd.) using an Acoma animal anesthesia machine (NS-5000A, Acoma Medical Industry Co., Ltd.) to maintain a constant depth of anesthesia. An incision was made in the right side of the neck of the animal, an animal internal cardiac pacemaker (SIP-501, Star Medical Corporation) was implanted subcutaneously, a retractable screw-in reed (Tendril STS J, St. Jude Medical, Inc.) was inserted through the right jugular vein under X-ray fluoroscopy (BV Pulsera, Koninklijke Philips N.V.), and the tip was implanted in the right ventricular wall. Pacing was started at 244-251 beats/min on postoperative day 1. Dogs with ejection fraction (EF) decreasing to 30-50% at 4 weeks after pacemaker activation were considered to have heart failure and subjected to analysis.
Echocardiography was performed using a general-purpose ultrasound imaging system (Vivid S6, GE Medical Systems). The left ventricular end-diastolic diameter (LVIDd), left ventricular end-systolic diameter (LVIDs), ejection fraction (EF), and left ventricular internal diameter shortening (% FS) were measured in M-mode by placing a sector probe (10 MHz) on the chest.
Dogs were anesthetized intravenously with 14.5 to 22.3 mg/kg of secobarbital sodium (Injectable Ionar sodium (0.2), Nichi-Iko Co., Ltd.), followed by subcutaneous administration of 0.2 mg/kg of meloxicam (Metacam 0.5% injection, Boehringer Ingelheim Animal Health Japan Co.). A tracheal tube was inserted into the airway and connected to an Acoma animal ventilator (PRO-45Va, Acoma Medical Industry Co., Ltd.). The ventilator was set at a respiratory rate of 14-18 strokes/min and a tidal volume of 10-20 mL/kg/stroke, and respiration was controlled by an Acoma animal anesthesia machine (NS-5000A, Acoma Medical Industry Co., Ltd.) using a gas mixture (FiO2=0.3-1.0). The exhaled CO2 partial pressure was monitored using an exhaled carbon dioxide monitor (OLG-2800, Nihon Kohden Corporation). The animals were fixed in the dorsal position and the thighs and neck were shom. Anesthesia was maintained by continuous intravenous infusion of sodium secobarbital (5 mg/kg/hr) through the radial cutaneous vein using a Telfusion syringe pump (STC-523, Terumo Corporation). A Swan-Ganz catheter was inserted through the left femoral vein. A catheter for coronary angiography was inserted through the left femoral artery. A 5F sheath for arterial blood sampling was placed in the right femoral artery. A catheter for PV-loop analysis was inserted from the left internal carotid artery. An 8F occlusion balloon was placed from the right femoral vein for occlusion testing. In addition, KUS121 was administered from the left common jugular vein.
Beagle dog models of heart failure were prepared by rapid ventricular pacing. Cardiac function was assessed by echocardiography before KUS121 administration and after continuous infusion at 40 mg/h. KUS121 increased LVEF, even if it was based on either of the Teichholz method and the modified-Simpson's method, and increased % FS (FIG. 18). Changes in heart rate, systolic blood pressure, diastolic blood pressure, left ventricular ejection fraction, mean pulmonary artery pressure, pulmonary capillary wedge pressure, left ventricular end-diastolic pressure, and adjusted dp/dt are shown in FIGS. 19 to 21. […]

TAC mice = assay: Acute effect on mouse models of heart failure (TAC, single injection 5 weeks later); assay type: in vivo
Description: Transverse aortic constriction (TAC) was performed as described previously [Date, et al. (2002) The antioxidant N-2-mercaptopropionyl glycine attenuates left ventricular hypertrophy in in vivo murine pressure-overload model. J Am Coll Cardiol 39: 907-912.]. Briefly, 8- to 10-week-old mice were anesthetized with anesthetic (0.3 mg/kg of medetomidine, 4.0 mg/kg of midazolam, and 5.0 mg/kg of butorphanol) administered intraperitoneally, and the proximal portion of the sternum was cut open to visualize the aorta. A 7-0 silk suture was placed around the aortic arch distal to the brachiocephalic artery. The suture was tightened firmly around a blunt 26-gauge needle placed adjacent to the aorta. The needle was then removed, and the chest and overlying skin were closed. Sham-operated mice underwent an identical surgical procedure without ligation of the aortic arch. At the end of the operation, 0.3 mg/kg of atipamezole was administered subcutaneously to reverse medetomidine. FIG. 1 is a schematic diagram of TAC.
To analyze the cardiac function, we used Vevo® 2100 (VISUALSONICS) at the indicated time points after TAC operation. Mice were kept under inhalation anesthesia with 2.5% isoflurane. LV function was measured in M mode of the parasternal short-axis view.
Mice were subjected to TAC at 8 weeks of age. Five weeks later (at 13 weeks of age), the mice were injected with KUS121 (50 mg/kg), and left ventricular ejection fraction (LVEF), left ventricular end-diastolic diameter (LVDd), and heart rate (HR) were assessed by echocardiography before and 10 minutes after the injection.
Mice were subjected to TAC at 8 weeks of age. Five weeks later (at 13 weeks of age), the mice were injected with KUS121 (50 mg/kg), and left ventricular pressure was measured by catheterization before and 10 minutes after the injection. The left ventricular pressure was 46.6 mmHg before KUS121 administration, and increased to 128.9 mmHg 10 minutes after the administration. In addition, Max/min dp/dt was changed from 1295.5/−621.4 mmHg/s to 3972.8/−1311.1 mmHg/s. […] Left ventricular ejection fraction was then measured over time and was 37% before KUS121 administration, increased to 67% 5 minutes after the administration, and returned to the baseline about 2 hours after the administration (FIG. 16).
Mice were subjected to TAC at 8 weeks of age. Five weeks later (at 13 weeks of age), the mice were injected with KUS187 (50 mg/kg), and left ventricular ejection fraction was assessed by echocardiography before and 10 minutes after the injection.

[2] = echocardiography, before vs after continuous infusion at 40 mg/h
[3] = infusion per FIG. 17 protocol, cardiac catheterization
[4] = TAC mice 5 weeks after TAC, 50 mg/kg, echocardiography before and 10 minutes after injection

## Cc1cc(F)ccc1-c1ccc(/N=N/c2cc(S(=O)(=O)O)c3ccccc3c2N)cn1 [KUS121, 4-amino-3-[6-(4-fluoro-2-methylphenyl)pyridine-3-ylazo]naphthalene-1-sulfonic acid sodium salt]
[1]; blood samples collected during acute phase
  liver and kidney functions: remained normal
[1]; [2]
  % FS (fractional shortening in left ventricle): increased
  LVEF based on the Teichholz method: increased
  LVEF based on the modified-Simpson's method: increased
[1]; infusion per FIG. 17 protocol
  heart rate: without affecting
  left ventricular diastolic function: improved
  left ventricular systolic function: improved
  systolic blood pressure: without affecting
[1]; [3]
  pulmonary artery pressure: lowered
  pulmonary capillary wedge pressure: lowered
TAC mice; 5 minutes after 50 mg/kg, 37% before administration
  left ventricular ejection fraction: 67%
TAC mice; TAC mice 5 weeks after TAC, 50 mg/kg, before and 10 minutes after injection, sodium salt, 50 mg/kg
  heart rate (HR): without significantly affecting heart rate; also recorded: without affecting HR
TAC mice; [4]
  left ventricular ejection fraction (LVEF): Recoveries
  left ventricular end-diastolic diameter (LVDd): Recoveries
TAC mice; TAC mice, 50 mg/kg, LVEF measured over time
  time after administration at which left ventricular ejection fraction returned to the baseline: about 2 hours
TAC mice; catheterization, 10 minutes after 50 mg/kg, 46.6 mmHg before administration
  left ventricular pressure: 128.9 mmHg
TAC mice; catheterization, 10 minutes after 50 mg/kg, 1295.5 mmHg/s before administration
  Max dp/dt: 3972.8 mmHg/s
TAC mice; catheterization, 10 minutes after 50 mg/kg, −621.4 mmHg/s before administration
  min dp/dt: −1311.1 mmHg/s
